Test results as given in patent publication US20080045580A1, “Novel Isoxazole Compounds Having Ppar Agonist Activity” (DR REDDY'S LABORATORIES LIMITED, priority 2004, published 2008).

Tests used:
human PPARα = target: T1, human PPARα (Homo sapiens, UniProt Q07869); experiment: in vitro PPARα transactivation (GAL4-LBD luciferase reporter in HEK-293 cells); format: cell-based
T1 construct: expressed in transfected cells; host or cells: HEK-293
T1 sequence (Q07869 239-466 limits assumed): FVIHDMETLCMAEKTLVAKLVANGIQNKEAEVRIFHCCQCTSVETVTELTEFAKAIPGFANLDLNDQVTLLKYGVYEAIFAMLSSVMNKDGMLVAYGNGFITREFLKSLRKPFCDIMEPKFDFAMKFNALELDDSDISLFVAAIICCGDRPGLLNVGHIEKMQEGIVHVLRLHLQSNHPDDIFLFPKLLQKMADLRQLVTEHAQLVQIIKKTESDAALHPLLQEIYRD
Source text: Generally, suitable PPAR agonists are believed to be useful for attenuating and/or treatment of diabetic dyslipidemia, metabolic syndrome, diabetes, cardiovascular disease, and obesity. The following procedure was used for in vitro determination of PPARα, γ and δ transactivation.
(§1) The ligand binding domain of human PPARγ1, PPARα or PPARδ was fused to the C-terminal end of DNA binding domain of yeast transcription factor GAL4 in eukaryotic expression vector. Using SuperFect (Qiagen), HEK-293 cells were transfected with this plasmid and a reporter plasmid harboring the luciferase gene driven under the control of 5 tandem GLA4 response elements. In some experiments, pAdVantage vector (Promega) was used to enhance luciferase expression. Compounds were added approximately 48 hours after transfection at various concentrations and incubated overnight. The cells were lysed and the luciferase activity was measured using the LucLite kit in Top Count (Packard). Luciferase activity was expressed as fold activation relative to untreated cells in the same experiment.

human PPARγ1 = target: T2, human PPARγ1 (Homo sapiens, UniProt P37231); experiment: in vitro PPARγ transactivation (GAL4-LBD luciferase reporter in HEK-293 cells); format: cell-based
T2 construct: expressed in transfected cells; host or cells: HEK-293
T2 sequence (P37231 238-503 limits assumed): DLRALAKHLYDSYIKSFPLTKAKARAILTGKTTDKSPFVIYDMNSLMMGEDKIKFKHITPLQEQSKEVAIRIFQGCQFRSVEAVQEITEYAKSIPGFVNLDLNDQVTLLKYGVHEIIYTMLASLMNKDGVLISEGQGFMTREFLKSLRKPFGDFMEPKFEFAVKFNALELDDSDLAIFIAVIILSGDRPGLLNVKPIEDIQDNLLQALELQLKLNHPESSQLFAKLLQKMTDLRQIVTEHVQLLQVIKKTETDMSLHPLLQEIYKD
Source text: The following procedure was used for in vitro determination of PPARα, γ and δ transactivation.
as §1

Male Swiss albino mice = experiment: plasma triglyceride lowering in Swiss albino mice; format: in vivo; settings: plasma triglycerides
Experimental: Male Swiss albino mice (SAM) were obtained from National Institute Nutrition (NIN, Hyderabad, India) and housed in Dr. Reddy's Laboratories Ltd (DRL) animal house. All these animals were maintained under 12 hour light and dark cycle at 25±1° C. Animals were given standard laboratory chow (NIN, Hyderabad, India) and water, ad libitum. Mice of 20-25 grams body weight range were used. See Olivier, et al., Atherosclerosis, 1988, 70:107-114, incorporated herein by reference in its entirety. The test compounds were administered orally to mice at the doses shown in the following in table for 6 days. […] After centrifugation, plasma was separated for plasma triglyceride and total cholesterol measurement. See Wieland, Methods of Enzymatic Analysis, Bergermeyer, ed., 1963, 211-214; Trinder, Ann. Clin. Biochenz., 1969, 6:24-27, incorporated herein by reference in their entireties. Measurement of cholesterol and plasma triglyceride was done using a […] autoanalyser (Merck). The percent reductions in plasma triglycerides (TG)/total cholesterol were calculated according to the following formula: [formula] OC=Zero day control group value OT=Zero day treated group value TC=Test day control group value TT=Test day treated group value.

[1] = test system: hypercholesterolemic Male Sprague Dawley rats; experiment: lipid lowering in hypercholesterolemic Sprague Dawley rats; format: in vivo; settings: hypercholesterolemic SD rats, 3 mg/kg orally for 3 days; for % Reduction TG: plasma triglycerides; for % Reduction TC: total cholesterol; for HDL % increase: values represent % increase
Experimental: Male Sprague Dawley rats (NIN stock) were bred in DRL animal house. Animals were maintained under 12 hour light and dark cycle at 25±1° C. Rats of 180-200 gram body weight range were used for the experiment. Animals were made hypercholesterolemic by feeding 2% cholesterol and 1% sodium cholate mixed with standard laboratory chow (NIN) for 6 days. Throughout the experimental period the animals were maintained on the same diet. Control rats were treated with vehicle alone (0.25% CMC; 10 ml/kg). Blood samples were collected in fed state 1 hour after drug administration on 0 and 3 days of treatment from the retro-orbital sinus through heparinized capillary tubes containing EDTA. After centrifugation, plasma sample was separated for total cholesterol, HDL and plasma triglyceride measurement. Measurement of total cholesterol, HDL and plasma triglyceride was done using a Vitalab Selectra autoanalyser (Merck). HDL was measured using a commercial kit. LDL and VLDL cholesterol were calculated from the data obtained for total cholesterol, HDL and plasma triglyceride.
The percent reductions in plasma triglycerides (TG)/total cholesterol (TC) were calculated as described in Example 55. The levels of LDL and VLDL cholesterol were calculated according to the following formulas: LDL cholesterol in mg/dl=[Total cholesterol−HDL cholesterol−Triglyceride/5] VLDL cholesterol in mg/dl=[Total cholesterol−HDL cholesterol−LDL cholesterol]

CCC(C)(Oc1ccc(OCc2cc(-c3ccc(-c4ccccc4)cc3)no2)cc1)C(=O)O (stereo not shown) [Example 19]
melting point: 188 to 190 °C

CCC(C)(Oc1ccc(OCCCc2cc(-c3ccc(C(F)(F)F)cc3)no2)cc1)C(=O)O (stereo not shown) [Example 21]
melting point: 110 to 112 °C

CC(C)(Oc1ccc(CCCc2cc(-c3ccccc3)no2)cc1)C(=O)O [Example 28, 2-methyl-2-{4-[3-(3-phenylisoxazol-5-yl)propyl]phenoxy}propanoic acid]
PPARα luciferase fold activation relative to untreated cells (human PPARα; 1 μM): 1.5 | PPARα luciferase fold activation relative to untreated cells (human PPARα; 10 μM): 4.8 | PPARα luciferase fold activation relative to untreated cells (human PPARα; 50 μM): 5.9 | PPARγ luciferase fold activation relative to untreated cells (human PPARγ1; 1 μM): 2.0 | PPARγ luciferase fold activation relative to untreated cells (human PPARγ1; 10 μM): 2.8 | PPARγ luciferase fold activation relative to untreated cells (human PPARγ1; 50 μM): 12.4 | % reduction in TG (Male Swiss albino mice; 3 mg/kg orally for 6 days): 48% | % Reduction TG [1]: 62% | % Reduction TC [1]: 70% | HDL % increase [1]: 132%

CC(C)(Oc1ccc(OCc2cc(-c3ccc(C(F)(F)F)cc3)no2)cc1)C(=O)O [Example 12]
melting point: 166 to 168 °C

Cc1cc(SCc2cc(-c3ccc(C(F)(F)F)cc3)no2)ccc1OC(C)(C)C(=O)O [Example 13]
melting point: 106 to 108 °C

CC[C@@](C)(Oc1ccc(OCc2cc(-c3ccc(OS(C)(=O)=O)cc3)no2)cc1)C(=O)O [Example 26]
PPARα luciferase fold activation relative to untreated cells (human PPARα; 1 μM): 1.8 | PPARα luciferase fold activation relative to untreated cells (human PPARα; 10 μM): 5.7 | PPARα luciferase fold activation relative to untreated cells (human PPARα; 50 μM): 5.8 | PPARγ luciferase fold activation relative to untreated cells (human PPARγ1; 1 μM): 0.1 | PPARγ luciferase fold activation relative to untreated cells (human PPARγ1; 10 μM): 1.0 | PPARγ luciferase fold activation relative to untreated cells (human PPARγ1; 50 μM): 5.3 | % reduction in TG (Male Swiss albino mice; 1 mg/kg orally for 6 days): 50%

CCOC(=O)C1(Oc2ccc(OCc3cc(-c4ccccc4)no3)cc2)CCCC1 [Example 2]
PPARα luciferase fold activation relative to untreated cells (human PPARα; 1 μM): 1.2 | PPARα luciferase fold activation relative to untreated cells (human PPARα; 10 μM): 1.0 | PPARα luciferase fold activation relative to untreated cells (human PPARα; 50 μM): 1.0 | PPARγ luciferase fold activation relative to untreated cells (human PPARγ1; 1 μM): 1.4 | PPARγ luciferase fold activation relative to untreated cells (human PPARγ1; 10 μM): 2.4 | PPARγ luciferase fold activation relative to untreated cells (human PPARγ1; 50 μM): 2.4 | melting point: 83 to 85 °C

O=C(O)[C@]1(Cc2ccc(OCc3cc(-c4ccc(C(F)(F)F)cc4)no3)cc2)CCCO1 [Example 37]
% reduction in TG (Male Swiss albino mice; 3 mg/kg orally for 6 days): 69% | % Reduction TG [1]: 68% | % Reduction TC [1]: 69% | % Reduction LDL ([1]; LDL cholesterol calculated from TC, HDL, TG): 75% | HDL % increase [1]: 138%

CC[C@@](C)(Oc1ccc(OCCCc2cc(-c3ccccc3)no2)cc1)C(=O)O [Example 15]
melting point: 105 to 108 °C

CCC(C)(Oc1ccc(OCc2cc(-c3ccc(C)cc3)no2)cc1)C(=O)O (stereo not shown) [Example 30, 2-Methyl-2-[4-(3-(4-methylphenyl)isoxazol-5-ylmethoxy)phenoxy]butyric acid]
melting point: 138 to 140 °C

CCC(C)(Oc1ccc(OCCCc2cc(-c3ccc(C)cc3)no2)cc1)C(=O)O (stereo not shown) [Example 32, 2-Methyl-2-{4-[3-(3-(4-methylphenyl)isoxazol-5-yl)propoxy]phenoxy}butyric acid]
melting point: 98 to 100 °C

CCC(C)(Oc1ccc(OCc2cc(-c3ccc(F)cc3)no2)cc1)C(=O)O (stereo not shown) [Example 23]
melting point: 118 to 120 °C
